Assay results published in US20240216288A1, “LIPID NANOPARTICLES CONTAINING POLYNUCLEOTIDES ENCODING PROPIONYL-COA CARBOXYLASE ALPHA AND BETA SUBUNITS AND USES THEREOF” (ModernaTX, Inc., priority 2021, published 2024).

Assay: Residual parent lipid in mouse liver at 24 h (hEPO study)
Assay type: in vivo
Conditions: CD-1 mice

Parent Lipid Remaining (nmol/g liver tissue) at 24 h: 0.1 0.04 nmol/g liver tissue
SMILES: CCCCCC(CCCCC)CCOC(=O)CCCCCCCN(CCO)CCCCCCCC(=O)OCCC(CCCCC)CCCCC [compound 25]
